This is an account of results in US12636259B2, “Transdermal absorption preparation” (Sumitomo Pharma Co., Ltd., priority 2020, dated 2026).

A short description of this data set: Saturation solubility measurement of compound A in additives. Format: physicochemical. Particulars: room temperature. The method, then: Various additives were weighed into a vial, compound A was added until it was no longer dissolved, and the mixture was stirred overnight at room temperature. The mixture was filtered using a 0.45 μm PTFE filter and the concentration of compound A in the filtrate was quantified by high performance liquid chromatography (ODS column, UV detector). When the concentration of compound A exceeded 20%, the addition of compound A was stopped.

Consider `O=C1[C@@H]2[C@H]3CC[C@H](C3)[C@@H]2C(=O)N1CCCCN1CCN(c2ncccn2)CC1` [compound A, (1R,2S,3R,4S)—N-[4-[4-(pyrimidin-2-yl)piperazin-1-yl]butyl]-2,3-bicyclo[2.2.1]heptan dicarboxyimide], for which the “saturation solubility of compound A (tandospirone)” value (from here on “saturation solubility”) runs as follows: (additive: N-methyl-2-pyrrolidone) 15.4%; (additive: diisopropyl adipate) 2.0%; (additive: dipropylene glycol) 1.6%; (additive: isopropyl myristate) 0.6%; (additive: lactic acid, stirred overnight, drug addition stopped when solubility exceeded 20%) “not less than 20%”; (additive: lauromacrogol (4)) 2.0%. In addition, the “saturation solubility” value by setting is: (additive: levulinic acid, drug addition stopped when solubility exceeded 20%) “not less than 20%”; (additive: oleic acid, drug addition stopped when solubility exceeded 20%) “not less than 20%”; (additive: oleyl alcohol) 1.0%; (additive: polysorbate 20) 1.4%; (additive: polysorbate 80) 1.4%; (additive: propylene glycol fatty acid diester (C8)) 1.3%. For the same compound, the “saturation solubility” value reads like this: (additive: propylene glycol fatty acid ester (C8)) 5.0%; (additive: propylene glycol fatty acid ester (C12)) 5.9%; (additive: sorbitan monolaurate, measured as mixed solution isopropyl myristate/sorbitan monolaurate = 50/50) 2.3%.
